A short description of data set [1]: Liver microsomal stability assay. In kind it is in vitro ADME. Conditions: liver microsomes, pH 7.4. The procedure:
The incubation system (including 0.1 M PH 7.4 phosphate buffer, NADPH generation system, UGT incubation system, 0.5 mg/mL liver microsomal protein and appropriate concentration of drug to be tested) was incubated in a water bath at 37 °C for […]. Each sample was incubated three times in parallel, and an equal volume of pre-chilled acetonitrile was added at preset reaction time points, such as 0, 5, 10, 15, 30 and 60 min. The reaction was terminated by the addition of acetonitrile. The remaining content of the prototype drug in the warm incubation solution was determined by HPLC, HPLC-MC and HPLC-MC/MC.
Background: Liver microsomes are vesicles of endoplasmic reticulum, rich in cytochrome P450 enzymes.

For another data set, the system named is MKN45 xenograft tumor. Kind of data set: MKN45 xenograft: 1D228 alone versus Tepotinib and Larotrectinib. In kind it is in vivo, nude mouse. The procedure: Male BALB/c nude mice (5-week old, 18–20 g) were purchased from Beijing Vital River Laboratory Animal Technology (Beijing Vital River LaboratoryAnimal Technology Co., Ltd., Beijing,China) and allowed to acclimate for 1 week, maintained at constant room temperature and fed a standard rodent chow and water. 1 × 10^7 cells/mL cancer cells grown in logarithmic phase were harvested and resuspended in FBS-free 1640 medium. Then, 100 μL of the cell suspension was subcutaneously injected into the right flank of each mouse. When the tumour volume was reached about 600–800 mm^3, it was removed, minced into small pieces of equal volume (2 × 2 × 2 mm^3), and transplanted subcutaneously into the nude mice. […]

The next data set relates to MKN45. Nature of the data set: CCK8 antiproliferative assay. Type of data set: cell-based. Conditions: Homo sapiens, MKN-45; MKN45, CCK-8, 72 h; read-out: IC50, cell proliferation. The procedure:
(§1) For cytotoxicity assay, the cells grown in the logarithmic phase were seeded into 96-well plates (7 × 10^3 cells/well) for 24 h, then exposed to different concentrations (10, 5, 1, 0.1, 0.01 and 0.001 μM) of the test compounds for 72 h. After attached cells were incubated with CCK8 (Sigma, USA) for another 1–4 h. Then the absorbance at 450 nm was measured using a multifunction microplate reader (Molecular Devices, Flex Station 3), and each experiment was performed at least in triplicate.
In general terms: Tetrazolium assays rely on reduction of a dye to a coloured formazan, in cell work by metabolically active cells.

A further data set deals with ASPC1. Nature of the data set: CCK8 antiproliferative assay. Type of data set: cell-based. Conditions: Homo sapiens; ASPC1, CCK8, 72 h; read-out: IC50, cell proliferation. The procedure:
as §1

The next data set deals with MHCC97H. Nature of the data set: CCK8 antiproliferative assay. In kind it is cell-based. The note with it: Homo sapiens, CCK-8, 72 h, read-out: IC50, cell proliferation. The procedure:
as §1

The subject of a further data set is HS746T. Nature of the data set: CCK8 antiproliferative assay. Type of data set: cell-based. Conditions: Homo sapiens; HS746T, CCK8, 72 h; read-out: IC50, cell proliferation. The procedure: as §1
Another data set has as its target T1, EPHB4 (Homo sapiens, UniProt P54760).
T1 construct: purchased Invitrogen (c-Met, TRKA, TRKB, TRKC)
Kind of data set: HTRF/ADP-Glo kinase selectivity panel. Type of data set: biochemical. The note with it: 500 nM, read-out: 1D228(%inhibition)@500nM. The procedure:
(§2) The compound was serial diluted from 10 mM stock in DMSO, dilute the test compound to 0.1 mM (200 times the specified test concentration). 2 × ATP & Substrate solution and 2 × kinase & Metal solution were prepared using assay buffer; Transfer 25 nL compound to 384 assay plate by Echo 655; After centrifugation, add 2.5 μL 2 × kinase/metal ion solution 384 assay plate, and incubate at 25 °C for 10 min. 2 × XL665 & Antibody solution were prepared with detection buffer; 5 μL of Kinase Detection Reagent was added to the well, and incubated for 60 min at 25 °C; The fluorescence signals of 620 nm (Cryptate) and 665 nm (XL665) were read by microtiter plate reader; […]
Background: TR-FRET usually uses a lanthanide donor and a delayed reading to cut background.

Another data set deals with T2, JAK3 (Homo sapiens, UniProt P52333).
T2 construct: purchased Invitrogen (c-Met, TRKA, TRKB, TRKC)
T2 sequence (P52333 whole entry): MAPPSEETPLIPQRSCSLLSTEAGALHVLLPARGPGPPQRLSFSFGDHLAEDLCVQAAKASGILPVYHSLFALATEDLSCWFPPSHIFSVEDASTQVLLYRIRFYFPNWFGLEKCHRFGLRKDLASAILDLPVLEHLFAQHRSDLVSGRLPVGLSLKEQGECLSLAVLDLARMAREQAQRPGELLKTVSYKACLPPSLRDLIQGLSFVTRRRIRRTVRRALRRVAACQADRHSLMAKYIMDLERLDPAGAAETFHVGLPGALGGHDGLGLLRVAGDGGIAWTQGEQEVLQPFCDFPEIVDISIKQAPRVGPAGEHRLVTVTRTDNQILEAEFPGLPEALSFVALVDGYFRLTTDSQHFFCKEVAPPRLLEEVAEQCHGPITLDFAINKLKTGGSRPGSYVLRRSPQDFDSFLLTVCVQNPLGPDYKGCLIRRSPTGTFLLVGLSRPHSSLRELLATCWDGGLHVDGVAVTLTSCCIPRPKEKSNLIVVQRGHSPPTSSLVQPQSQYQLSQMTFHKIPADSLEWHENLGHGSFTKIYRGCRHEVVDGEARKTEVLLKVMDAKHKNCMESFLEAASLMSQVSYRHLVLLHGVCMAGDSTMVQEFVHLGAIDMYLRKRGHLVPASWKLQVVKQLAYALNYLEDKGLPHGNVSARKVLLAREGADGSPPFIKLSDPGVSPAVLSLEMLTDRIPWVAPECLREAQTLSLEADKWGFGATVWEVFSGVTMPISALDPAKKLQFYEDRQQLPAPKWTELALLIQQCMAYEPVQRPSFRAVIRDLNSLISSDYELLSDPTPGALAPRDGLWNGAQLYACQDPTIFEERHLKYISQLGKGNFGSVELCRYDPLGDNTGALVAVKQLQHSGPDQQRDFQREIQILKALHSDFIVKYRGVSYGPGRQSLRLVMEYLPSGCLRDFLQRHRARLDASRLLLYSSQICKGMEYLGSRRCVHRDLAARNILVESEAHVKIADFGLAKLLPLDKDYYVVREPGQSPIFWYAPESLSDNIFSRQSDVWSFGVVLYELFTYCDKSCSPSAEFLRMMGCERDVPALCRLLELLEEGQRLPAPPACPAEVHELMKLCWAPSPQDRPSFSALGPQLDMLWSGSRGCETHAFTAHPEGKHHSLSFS
Nature of the data set: HTRF/ADP-Glo kinase selectivity panel. In kind it is biochemical. The note with it: 500 nM, read-out: 1D228(%inhibition)@500nM. On the procedure: as §2

In a further data set the target is T3, EPHB3 (Homo sapiens, UniProt P54753).
T3 construct: purchased Invitrogen (c-Met, TRKA, TRKB, TRKC)
T3 sequence (P54753 34-998): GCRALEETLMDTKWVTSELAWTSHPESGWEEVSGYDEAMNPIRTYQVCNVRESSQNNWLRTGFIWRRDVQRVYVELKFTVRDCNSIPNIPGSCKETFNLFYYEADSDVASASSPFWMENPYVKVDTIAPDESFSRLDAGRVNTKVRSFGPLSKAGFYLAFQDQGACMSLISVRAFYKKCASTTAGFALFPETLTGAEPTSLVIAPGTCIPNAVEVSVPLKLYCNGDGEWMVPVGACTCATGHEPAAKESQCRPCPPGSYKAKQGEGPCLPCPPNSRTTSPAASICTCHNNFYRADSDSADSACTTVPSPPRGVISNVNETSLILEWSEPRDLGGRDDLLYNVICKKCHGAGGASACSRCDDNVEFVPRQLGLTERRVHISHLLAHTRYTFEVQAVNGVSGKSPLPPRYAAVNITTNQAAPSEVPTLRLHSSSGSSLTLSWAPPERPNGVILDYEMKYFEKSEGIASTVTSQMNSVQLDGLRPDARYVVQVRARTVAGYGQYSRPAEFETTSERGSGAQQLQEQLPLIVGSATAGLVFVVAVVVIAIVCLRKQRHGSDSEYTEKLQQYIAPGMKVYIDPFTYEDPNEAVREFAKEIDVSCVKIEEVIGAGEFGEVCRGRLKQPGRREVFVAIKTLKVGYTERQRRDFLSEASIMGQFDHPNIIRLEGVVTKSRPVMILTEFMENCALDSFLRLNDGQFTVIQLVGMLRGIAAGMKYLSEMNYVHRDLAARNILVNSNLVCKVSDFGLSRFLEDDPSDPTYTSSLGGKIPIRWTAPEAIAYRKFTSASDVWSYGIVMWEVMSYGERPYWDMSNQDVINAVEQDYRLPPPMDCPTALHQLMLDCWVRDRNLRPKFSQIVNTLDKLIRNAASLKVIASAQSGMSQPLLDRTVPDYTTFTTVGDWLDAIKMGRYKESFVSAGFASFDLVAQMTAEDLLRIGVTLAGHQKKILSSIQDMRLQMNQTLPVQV
Kind of data set: HTRF/ADP-Glo kinase selectivity panel. Type of data set: biochemical. The note with it: 500 nM, read-out: 1D228(%inhibition)@500nM. The procedure: as §2

The target of another data set is T4, TRKA (Homo sapiens, UniProt P04629).
T4 construct: purchased Invitrogen (c-Met, TRKA, TRKB, TRKC)
T4 sequence (P04629 33-796): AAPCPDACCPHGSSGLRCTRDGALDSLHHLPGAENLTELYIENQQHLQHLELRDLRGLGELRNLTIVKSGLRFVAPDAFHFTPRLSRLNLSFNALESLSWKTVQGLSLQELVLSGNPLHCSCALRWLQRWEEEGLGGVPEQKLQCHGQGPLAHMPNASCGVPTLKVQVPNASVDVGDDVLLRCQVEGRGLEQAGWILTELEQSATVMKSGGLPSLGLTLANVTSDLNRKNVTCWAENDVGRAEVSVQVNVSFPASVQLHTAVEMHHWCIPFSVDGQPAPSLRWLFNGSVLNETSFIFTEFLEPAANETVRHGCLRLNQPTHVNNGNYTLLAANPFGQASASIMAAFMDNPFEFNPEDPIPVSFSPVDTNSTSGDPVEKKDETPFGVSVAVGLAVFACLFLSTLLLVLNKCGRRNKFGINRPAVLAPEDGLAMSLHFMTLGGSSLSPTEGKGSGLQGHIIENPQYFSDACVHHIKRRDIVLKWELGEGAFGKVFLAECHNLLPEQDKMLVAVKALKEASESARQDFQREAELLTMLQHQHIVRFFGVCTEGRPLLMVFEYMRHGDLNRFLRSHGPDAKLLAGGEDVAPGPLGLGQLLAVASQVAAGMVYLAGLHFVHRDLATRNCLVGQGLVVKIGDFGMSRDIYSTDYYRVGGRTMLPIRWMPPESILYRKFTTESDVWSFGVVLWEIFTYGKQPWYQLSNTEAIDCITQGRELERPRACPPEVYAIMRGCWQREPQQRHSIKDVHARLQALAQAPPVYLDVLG
Kind of data set: HTRF/ADP-Glo kinase selectivity panel. Type of data set: biochemical. Conditions: 500 nM, read-out: 1D228(%inhibition)@500nM. On the procedure:
as §2

In the next data set the target is T5, PYK2 (Homo sapiens, UniProt Q14289).
T5 construct: purchased Invitrogen (c-Met, TRKA, TRKB, TRKC)
Kind of data set: HTRF/ADP-Glo kinase selectivity panel. The note with it: 500 nM, read-out: 1D228(%inhibition)@500nM. Type of data set: biochemical. On the procedure:
as §2

For a further data set, the target named is T6, IGF1R (Homo sapiens, UniProt P08069).
T6 construct: purchased Invitrogen (c-Met, TRKA, TRKB, TRKC)
Nature of the data set: HTRF/ADP-Glo kinase selectivity panel. Type of data set: biochemical. Conditions: 500 nM, read-out: 1D228(%inhibition)@500nM. On the procedure:
as §2

The target in another data set is T7, FYN [b] (Homo sapiens, UniProt P06241).
T7 construct: purchased Invitrogen (c-Met, TRKA, TRKB, TRKC)
Nature of the data set: HTRF/ADP-Glo kinase selectivity panel. In kind it is biochemical. Conditions: 500 nM, read-out: 1D228(%inhibition)@500nM. The procedure:
as §2

A further data set addresses T8, RET (Homo sapiens, UniProt P07949).
T8 construct: purchased Invitrogen (c-Met, TRKA, TRKB, TRKC)
Nature of the data set: HTRF/ADP-Glo kinase selectivity panel. The note with it: 500 nM, read-out: 1D228(%inhibition)@500nM. In kind it is biochemical. On the procedure:
as §2

For a further data set, the target named is T9, EPHA3 (Homo sapiens, UniProt P29320).
T9 construct: purchased Invitrogen (c-Met, TRKA, TRKB, TRKC)
Kind of data set: HTRF/ADP-Glo kinase selectivity panel. Conditions: 500 nM, read-out: 1D228(%inhibition)@500nM. Type of data set: biochemical. The procedure: as §2

Another data set deals with T10, LCK (Homo sapiens, UniProt P06239).
T10 construct: purchased Invitrogen (c-Met, TRKA, TRKB, TRKC)
Nature of the data set: HTRF/ADP-Glo kinase selectivity panel. Type of data set: biochemical. The note with it: 500 nM, read-out: 1D228(%inhibition)@500nM. On the procedure: as §2

For the next data set, the target named is T11, KIT (Homo sapiens, UniProt P10721).
T11 construct: purchased Invitrogen (c-Met, TRKA, TRKB, TRKC)
Kind of data set: HTRF/ADP-Glo kinase selectivity panel. In kind it is biochemical. The note with it: 500 nM, read-out: 1D228(%inhibition)@500nM. The procedure:
as §2

Another data set deals with T12, FRK (Homo sapiens, UniProt P42685).
T12 construct: purchased Invitrogen (c-Met, TRKA, TRKB, TRKC)
Nature of the data set: HTRF/ADP-Glo kinase selectivity panel. Type of data set: biochemical. Conditions: 500 nM, read-out: 1D228(%inhibition)@500nM. The procedure:
as §2

Another data set concerns the target T13, FGFR2 (Homo sapiens, UniProt P21802).
T13 construct: purchased Invitrogen (c-Met, TRKA, TRKB, TRKC)
Kind of data set: HTRF/ADP-Glo kinase selectivity panel. Type of data set: biochemical. Conditions: 500 nM, read-out: 1D228(%inhibition)@500nM. On the procedure:
as §2

For a further data set, the target named is T14, SRC (Homo sapiens, UniProt P12931).
T14 construct: purchased Invitrogen (c-Met, TRKA, TRKB, TRKC)
Kind of data set: HTRF/ADP-Glo kinase selectivity panel. Type of data set: biochemical. The note with it: 500 nM, read-out: 1D228(%inhibition)@500nM. The procedure: as §2

The target in a further data set is T15, TIE2 (Homo sapiens, UniProt Q02763).
T15 construct: purchased Invitrogen (c-Met, TRKA, TRKB, TRKC)
Nature of the data set: HTRF/ADP-Glo kinase selectivity panel. Type of data set: biochemical. The note with it: 500 nM, read-out: 1D228(%inhibition)@500nM. On the procedure:
as §2

A further data set concerns the target T16, EPHA5 (Homo sapiens, UniProt P54756).
T16 construct: purchased Invitrogen (c-Met, TRKA, TRKB, TRKC)
Kind of data set: HTRF/ADP-Glo kinase selectivity panel. In kind it is biochemical. The note with it: 500 nM, read-out: 1D228(%inhibition)@500nM. On the procedure: as §2

T13 sequence (P21802 22-821): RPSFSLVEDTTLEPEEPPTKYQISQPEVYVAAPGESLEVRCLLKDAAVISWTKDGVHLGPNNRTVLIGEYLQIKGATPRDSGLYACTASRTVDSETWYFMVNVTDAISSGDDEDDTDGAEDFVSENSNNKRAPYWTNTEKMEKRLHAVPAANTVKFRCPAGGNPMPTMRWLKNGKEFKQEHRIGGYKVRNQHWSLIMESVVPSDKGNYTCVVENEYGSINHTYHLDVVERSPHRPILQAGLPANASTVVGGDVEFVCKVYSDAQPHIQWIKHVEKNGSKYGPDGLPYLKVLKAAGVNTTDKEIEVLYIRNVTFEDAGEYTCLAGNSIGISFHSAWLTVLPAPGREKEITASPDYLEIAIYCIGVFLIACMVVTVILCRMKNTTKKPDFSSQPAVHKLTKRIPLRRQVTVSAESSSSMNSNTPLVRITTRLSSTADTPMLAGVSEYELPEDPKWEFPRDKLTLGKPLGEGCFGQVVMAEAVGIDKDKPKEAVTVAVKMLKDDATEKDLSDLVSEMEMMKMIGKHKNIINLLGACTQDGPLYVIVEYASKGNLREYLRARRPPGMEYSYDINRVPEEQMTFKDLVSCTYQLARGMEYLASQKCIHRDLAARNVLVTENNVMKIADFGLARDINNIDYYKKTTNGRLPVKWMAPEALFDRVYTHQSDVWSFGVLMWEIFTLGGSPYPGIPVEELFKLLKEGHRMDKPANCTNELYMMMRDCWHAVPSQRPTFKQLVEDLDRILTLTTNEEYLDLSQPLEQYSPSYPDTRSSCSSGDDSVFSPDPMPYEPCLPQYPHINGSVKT
T1 sequence (P54760 16-987): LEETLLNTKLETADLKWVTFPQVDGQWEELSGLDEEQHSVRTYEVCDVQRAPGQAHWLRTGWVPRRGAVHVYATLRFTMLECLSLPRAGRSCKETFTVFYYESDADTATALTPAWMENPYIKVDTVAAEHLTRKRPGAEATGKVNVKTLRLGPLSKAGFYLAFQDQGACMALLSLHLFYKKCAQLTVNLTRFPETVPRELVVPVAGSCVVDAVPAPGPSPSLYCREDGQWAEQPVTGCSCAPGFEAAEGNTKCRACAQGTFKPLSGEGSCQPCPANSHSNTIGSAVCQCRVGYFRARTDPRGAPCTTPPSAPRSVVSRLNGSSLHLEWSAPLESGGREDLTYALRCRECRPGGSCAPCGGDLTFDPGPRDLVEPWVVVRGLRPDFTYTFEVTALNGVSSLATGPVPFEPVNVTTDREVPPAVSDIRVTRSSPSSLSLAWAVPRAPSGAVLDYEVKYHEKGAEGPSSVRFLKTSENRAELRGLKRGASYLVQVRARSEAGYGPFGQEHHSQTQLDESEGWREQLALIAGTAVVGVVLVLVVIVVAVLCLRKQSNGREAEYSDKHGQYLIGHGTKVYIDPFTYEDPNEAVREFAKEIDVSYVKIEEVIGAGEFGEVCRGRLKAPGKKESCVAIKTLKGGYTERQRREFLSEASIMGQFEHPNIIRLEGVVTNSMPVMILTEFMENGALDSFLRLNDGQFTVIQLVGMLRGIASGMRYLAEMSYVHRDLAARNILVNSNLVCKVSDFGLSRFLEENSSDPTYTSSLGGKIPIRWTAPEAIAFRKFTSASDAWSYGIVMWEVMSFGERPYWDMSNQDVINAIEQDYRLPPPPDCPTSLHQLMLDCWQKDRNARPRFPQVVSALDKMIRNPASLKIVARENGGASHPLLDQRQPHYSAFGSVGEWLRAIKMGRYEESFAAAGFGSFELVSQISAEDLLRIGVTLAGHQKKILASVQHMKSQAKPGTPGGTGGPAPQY

As to `[2H][C@@](C)(c1cccc(-c2ncc(OCC3CCN(C)CC3)cn2)c1)n1nc(-c2cccc(C#N)c2)ccc1=O` [1D228], the half-life came to 27.6 h in [1] (cynomolgus monkey, Macaca fascicularis liver microsome) and 1.7 h in [1] (mouse, CD - 1 mice liver microsome). Further, the Tumor volume reduction with MKN45 xenograft tumor (MKN45 gastric cancer nude mouse transplant tumor) was ~90%. For the same molecule, the “Body weight of tumor bearing mice” value with MKN45 xenograft tumor (MKN45 xenograft) is reported as “the opposite was true”. Also, the IC50 is 1 nM with MKN45, 1330 nM in the data set on ASPC1, 4.3 nM in the data set on MHCC97H and 890 nM in the data set on HS746T. Moreover, the inhibition at 0.5 µM on EPHB4 is 5.08%; at JAK3, 0.193%; on EPHB3, 5.68%; on TRKA, 93.6%; at PYK2, 1.14%; on IGF1R, 5.26%. Also, the inhibition at 0.5 µM at FYN [b] was 10.9%; on RET, 12.2%; on EPHA3 it was -11.8%; at LCK it was 5.21%; at KIT, -4.5%; on FRK, 11.3%. Besides, the inhibition at 0.5 µM on FGFR2 was 1.04%; at SRC, 2.91%; at TIE2, -2.64%; at EPHA5, 3.74%.

What is called half-life is the time needed for the level to fall by half in the phase considered. A high value points to slow loss. For orientation: inhibition means the change of the read-out against control, counted positive when it falls.

The record behind these values is article PMC10636171 (Cell Death & Disease, 2023).
